Measured values published in US20130295145A1, “TOPICAL PHARMACEUTICAL COMPOSITIONS COMPRISING ETODOLAC” (CADILA HEALTHCARE LIMITED, priority 2010, published 2013).

Assay: Stability study on nanogel composition of Example 1 (storage at 40° C. and 75% relative humidity)
Type: physicochemical
Conditions: for % Drug in the formulation, 1 Month / % Drug in the formulation, 2 Month / % Drug in the formulation, 3 Month: 40° C. and 75% relative humidity; for % Drug in the formulation, 2 Month: 2 months; for % Drug in the formulation, 3 Month: 3 months
Text: Stability Study on Nanogel Composition of Example 1

[1] = nanogel Formulation 1 of Example 1
[2] = nanogel Formulation 2 of Example 1

| % Drug in the formulation, 1 Month [1] [%] | % Drug in the formulation, 2 Month [1] [%] | % Drug in the formulation, 3 Month [1] [%] | % Drug in the formulation, Initial [1] [%] | % Drug in the formulation, 1 Month [2] [%] | % Drug in the formulation, 2 Month [2] [%] | % Drug in the formulation, 3 Month [2] [%] | % Drug in the formulation, Initial [2] [%] | Structure (SMILES) |
| --- | --- | --- | --- | --- | --- | --- | --- | --- |
| 99.5 | 97.7 | 95.9 | 101.6 | 97.6 | 103.0 | 102.3 | 100.4 | CCc1cccc2c3c([nH]c12)C(CC)(CC(=O)O)OCC3 (racemic) [Etodolac, (RS)-2-(1,8-Diethyl-4,9-dihydro-3H-pyrano[3,4-b]indol-1-yl)acetic acid] |
| 100.9 | 95.2 | 93.2 | 97.3 | 101.2 | 97.7 | 97.2 | 100.2 | COC(=O)c1ccccc1O [Methyl salicylate] |
